# Test results: patent publication US11077090B2, “Compounds and compositions and uses thereof” (Sunovion Pharmaceuticals Inc., priority 2016, dated 2021)
# Test system: Male C57Bl/6J mice
# Test: Marble burying test
# Format: in vivo
# Set-up: key: −: No reduction in number of marbles buried; +: Significant reduction in number of marbles buried (P < 0.05 vs vehicle)
# Conditions: 3 mg/kg (p.o.)
# Method: The marble burying assay is used to evaluate the anxiolytic activity of a test compound. After placement in a novel cage containing glass marbles, mice will bury the marbles. Acute administration of anxiolytic agents, as well as antidepressants, decrease this activity at non-sedating doses. Male C57Bl/6J mice from Jackson Laboratories were used in this study and were acclimatized to the experimental room for at least 1 hour prior to testing. Mice (n=10 per group) were administered sterile water or test compound intraperitoneally (i.p.) or orally by gavage (p.o.), or the positive control chlordiazepoxide (15 mg/kg, i.p.), in 10 mL/kg injection volumes, and returned to their home cages for a 30-minute pretreatment period. The mice were then placed individually in clean cages, containing hard wood bedding and twenty black marbles placed in spaced rows of 4×5. After a 30-minute test session, the number of buried marbles was counted. A marble was considered buried if it was pushed at least two thirds into the bedding. Locomotor activity was monitored by measuring the distance traveled using an overhead camera and Video Tracker Software (ViewPoint Life Sciences Software, France). A reduction in the number of marbles buried relative to the vehicle condition indicates an anxiolytic drug-like effect.
row,SMILES,Marbles Buried
1,"N[C@@H]1COCc2ccccc21 (single isomer, unassigned) [Example 111]",−
2,"N[C@H]1COCc2ccc(F)cc21 (single isomer, unassigned) [Example 114]",+
3,"N[C@@H]1COCc2ccc3ccccc3c21 (single isomer, unassigned) [Example 117]",+

# Same assay, conditions: 10 mg/kg (p.o.)
row,SMILES,Marbles Buried
1,"N[C@@H]1COCc2ccccc21 (single isomer, unassigned) [Example 111]",+
2,"N[C@H]1COCc2ccc(F)cc21 (single isomer, unassigned) [Example 114]",+
3,"N[C@@H]1COCc2ccc3ccccc3c21 (single isomer, unassigned) [Example 117]",+
4,"N[C@H]1COCc2ccc3ccccc3c21 (single isomer, unassigned) [Example 118]",+
5,Cc1ccc2c(c1)[C@H](N)COC2 [Example 123],+
6,Cc1ccc2c(c1)[C@@H](N)COC2 [Example 124],+

# Same assay, conditions: 30 mg/kg (p.o.)
row,SMILES,Marbles Buried
1,"N[C@@H]1COCc2ccccc21 (single isomer, unassigned) [Example 111]",+
2,"N[C@H]1COCc2ccc(F)cc21 (single isomer, unassigned) [Example 114]",+
3,"N[C@@H]1COCc2ccc3ccccc3c21 (single isomer, unassigned) [Example 117]",+
4,"N[C@H]1COCc2ccc3ccccc3c21 (single isomer, unassigned) [Example 118]",+
5,Cc1ccc2c(c1)[C@H](N)COC2 [Example 123],+
6,Cc1ccc2c(c1)[C@@H](N)COC2 [Example 124],+

# Test system: Adult male AJ mice
# Test: Tail suspension test (TST)
# Format: in vivo
# Set-up: key: −: No decrease in Mean Total Time Immobile; +: Significant decrease in Mean Total Time Immobile (P < 0.05 vs vehicle)
# Conditions: 3 mg/kg PO
# Excerpt: The tail suspension test (TST) is a rodent screening test for potential (human) antidepressant drugs. It is based on the assumption that an animal will actively try to escape an aversive (stressful) stimulus. If escape is impossible, the animal will eventually stop trying (“give up”). In the TST, a mouse is suspended by the tail so that its body dangles in the air, head downward. Mice initially struggle to face upward and climb to a solid surface. When the animal stops struggling and hangs immobile it is considered to have “given up”. Shorter periods of immobility are characteristic of antidepressant-like activity. Accordingly, longer periods of immobility are considered indicative of a depressive-like state. It has been shown that treatment with an antidepressant drug will decrease the time the animal spends immobile. See generally L. Steru et al., Psychopharmacology (Berl). 1985; 85(3):367-70; B. Thierry et al., Psychopharmacology 1986; 90:284-85.
# Adult male AJ mice from Jackson Laboratories received vehicle (sterile water) or test compound orally by gavage, or the positive control desipramine (20 mg/kg, i.p.), in 10 mL/kg injection volumes, 30 min before being subjected to the Tail Suspension Test. In this test, mice are placed in the Tail Suspension chambers (white polyvinylchloride cubicles measuring 33×33×31.75 cm Med Associates, Inc. St. Albans, Vt.) by a piece of transparent (Scotch®) tape attached to the tail, from about the mid-tail, with approximately 2 cm of tape past the end of the tail for 10 min during which the time spent immobile is measured. A reduction in total time immobile relative to the vehicle condition indicates an antidepressant drug-like response.
row,SMILES,Mean Total Time Immobile
1,"N[C@@H]1COCc2ccccc21 (single isomer, unassigned) [Example 111]",−

# Same assay, conditions: 10 mg/kg PO
row,SMILES,Mean Total Time Immobile
1,"N[C@@H]1COCc2ccccc21 (single isomer, unassigned) [Example 111]",−
2,"N[C@H]1COCc2ccc(F)cc21 (single isomer, unassigned) [Example 114]",−
3,"N[C@@H]1COCc2ccc3ccccc3c21 (single isomer, unassigned) [Example 117]",+
4,"N[C@H]1COCc2ccc3ccccc3c21 (single isomer, unassigned) [Example 118]",−
5,Cc1ccc2c(c1)[C@H](N)COC2 [Example 123],−
6,Cc1ccc2c(c1)[C@@H](N)COC2 [Example 124],−

# Same assay, conditions: 30 mg/kg PO
row,SMILES,Mean Total Time Immobile
1,"N[C@@H]1COCc2ccccc21 (single isomer, unassigned) [Example 111]",−
2,"N[C@H]1COCc2ccc(F)cc21 (single isomer, unassigned) [Example 114]",+
3,"N[C@@H]1COCc2ccc3ccccc3c21 (single isomer, unassigned) [Example 117]",−
4,"N[C@H]1COCc2ccc3ccccc3c21 (single isomer, unassigned) [Example 118]",−
5,Cc1ccc2c(c1)[C@H](N)COC2 [Example 123],−
6,Cc1ccc2c(c1)[C@@H](N)COC2 [Example 124],−

# Test system: Male C57Bl/6J mice
# Test: Amphetamine induced hyperlocomotion assay
# Format: in vivo
# Set-up: key: #: Significant increase in total distance traveled (P < 0.05 vs vehicle + AMPH group); −: No change in total distance traveled; Significant decrease in total distance traveled (P < 0.05 vs vehicle + AMPH group)
# Conditions: 3 mg/kg PO Compound + AMPH
# Method: Psychostimulants such as amphetamine (AMPH) are frequently used to induce or mimic a manic-like or psychotic-like state. AMPH administration to rodents increases horizontal locomotion, vertical rearing and repetitive stereotyped behaviors, and typical antipsychotic drugs, such as haloperidol, can reduce these behaviors. The antimanic/antipsychotic-like effects of test compounds were evaluated in male C57Bl/6J mice from Jackson Laboratories Mice were acclimatized to the experimental room for at least 1 hour prior to testing. The mice (n=10 per group) were administered vehicle or test compound orally by gavage (10 mL/kg injection volume) and placed individually in the novel open field (OF) chambers (Med Associates) for 30 minutes of baseline activity measurement. Mice were then injected with either water or AMPH (4 mg/kg, i.p., 10 mL/kg) and placed back in the same individual OF chambers for a 60-minute testing session during which the effects of test compounds on stimulant-induced behaviors (total distance traveled, rearing and stereotypy) were measured. A reduction in total distance traveled relative to the vehicle+AMPH condition indicates an antimanic/antipsychotic drug-like response.
row,SMILES,Total Distance Traveled
1,"N[C@@H]1COCc2ccccc21 (single isomer, unassigned) [Example 111]",#

# Same assay, conditions: 10 mg/kg PO Compound + AMPH
row,SMILES,Total Distance Traveled
1,"N[C@@H]1COCc2ccccc21 (single isomer, unassigned) [Example 111]",−
2,"N[C@H]1COCc2ccc(F)cc21 (single isomer, unassigned) [Example 114]",−
3,"N[C@@H]1COCc2ccc3ccccc3c21 (single isomer, unassigned) [Example 117]",−
4,"N[C@H]1COCc2ccc3ccccc3c21 (single isomer, unassigned) [Example 118]",−
5,Cc1ccc2c(c1)[C@H](N)COC2 [Example 123],−
6,Cc1ccc2c(c1)[C@@H](N)COC2 [Example 124],−

# Same assay, conditions: 30 mg/kg PO Compound + AMPH
row,SMILES,Total Distance Traveled
1,"N[C@@H]1COCc2ccccc21 (single isomer, unassigned) [Example 111]",+
2,"N[C@H]1COCc2ccc(F)cc21 (single isomer, unassigned) [Example 114]",+
3,"N[C@@H]1COCc2ccc3ccccc3c21 (single isomer, unassigned) [Example 117]",+
4,"N[C@H]1COCc2ccc3ccccc3c21 (single isomer, unassigned) [Example 118]",+
5,Cc1ccc2c(c1)[C@H](N)COC2 [Example 123],+
6,Cc1ccc2c(c1)[C@@H](N)COC2 [Example 124],+
